Series [1] in a line: Metabolic stability in mouse liver microsomes assessed as half life in presence of NADPH by LC-MS/MS analysis. The class given is ADME, Microsome.
Series [2] is described as follows: Metabolic stability in mouse liver microsomes assessed as intrinsic clearance in presence of NADPH by LC-MS/MS analysis. The series is classed as ADME, Microsome. Conditions: read-out: CLH. (Liver microsomes are a subcellular fraction often used to study metabolism.)
A short description of series [3]: Half life in ICR (CD-1) mouse at 10 mg/kg, iv measured for 24 hrs by LC-MS/MS analysis. Conditions: in vivo. The series is classed as ADME, organism-based.
Series [4] in a line: Half life in ICR (CD-1) mouse at 50 mg/kg, ip measured for 24 hrs by LC-MS/MS analysis. The class given is ADME, organism-based. Conditions: in vivo.
Series [5] can be described thus: Tmax in ICR (CD-1) mouse at 50 mg/kg, ip measured for 24 hrs by LC-MS/MS analysis. The series is classed as ADME, organism-based. Conditions: in vivo.
Series [6] can be described thus: Cmax in ICR (CD-1) mouse at 10 mg/kg, iv measured for 24 hrs by LC-MS/MS analysis. On the set-up: time 24 hrs, dose 10 mg/kg, route iv. Conditions: in vivo. The class given is ADME, organism-based.
A short description of series [7]: AUC (0 to t) in ICR (CD-1) mouse at 10 mg/kg, iv measured for 24 hrs by LC-MS/MS analysis. The series is classed as ADME, organism-based. Details: dose 10 mg/kg, time 24 hrs, route iv. Conditions: in vivo.
Series [8] can be described thus: AUC (0 to t) in ICR (CD-1) mouse at 50 mg/kg, ip measured for 24 hrs by LC-MS/MS analysis. Conditions: in vivo. Details: dose 50 mg/kg, time 24 hrs, route ip. The series is classed as ADME, organism-based.
Series [9] in a line: MRT (0 to t) in ICR (CD-1) mouse at 10 mg/kg, iv measured for 24 hrs by LC-MS/MS analysis. Conditions: in vivo. The class given is ADME, organism-based.
Series [10] can be described thus: Volume of distribution at steady state in ICR (CD-1) mouse at 10 mg/kg, iv measured for 24 hrs by LC-MS/MS analysis. The series is classed as ADME, organism-based. Conditions: in vivo.
Series [11] in a line: Toxicity in athymic BALB/c nude mouse xenografted with human MDA-MB-231 cells assessed as reduction in body weight at 25 to 50 mg/kg/day, ip administered for 28 consecutive days. Conditions: in vivo, 672 h, dose 25-50 mg/kg/day, time 28 day. The series is classed as organism-based. Background: A xenograft is tissue or cells of one species grown in another, often human tumour cells in immunodeficient mice.

Series [12] deals with T1, Histone deacetylase 8 (Homo sapiens, UniProt Q9BY41).
T1 sequence (Q9BY41 whole entry): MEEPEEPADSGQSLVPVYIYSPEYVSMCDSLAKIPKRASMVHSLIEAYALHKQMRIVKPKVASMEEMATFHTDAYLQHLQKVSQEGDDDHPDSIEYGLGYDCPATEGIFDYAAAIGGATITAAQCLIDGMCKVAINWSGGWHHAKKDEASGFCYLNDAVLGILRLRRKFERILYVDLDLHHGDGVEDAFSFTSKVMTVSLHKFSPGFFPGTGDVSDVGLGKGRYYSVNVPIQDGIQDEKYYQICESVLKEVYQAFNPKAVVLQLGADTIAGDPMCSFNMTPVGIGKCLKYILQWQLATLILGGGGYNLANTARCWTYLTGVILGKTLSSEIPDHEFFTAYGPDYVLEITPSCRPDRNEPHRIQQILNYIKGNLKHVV
In words: Inhibition of HDAC8 (unknown origin) using Boc-Lys-(trifluoroacetyl)-AMC as substrate incubated for 30 mins by fluorescence based analysis.

The target in series [13] is Histone deacetylase 4 (Homo sapiens, UniProt P56524). Briefly: Inhibition of HDAC4 (unknown origin) using Boc-Lys-(trifluoroacetyl)-AMC as substrate incubated for 30 mins by fluorescence based analysis.
Histone deacetylase 4, sequence (P56524 whole entry): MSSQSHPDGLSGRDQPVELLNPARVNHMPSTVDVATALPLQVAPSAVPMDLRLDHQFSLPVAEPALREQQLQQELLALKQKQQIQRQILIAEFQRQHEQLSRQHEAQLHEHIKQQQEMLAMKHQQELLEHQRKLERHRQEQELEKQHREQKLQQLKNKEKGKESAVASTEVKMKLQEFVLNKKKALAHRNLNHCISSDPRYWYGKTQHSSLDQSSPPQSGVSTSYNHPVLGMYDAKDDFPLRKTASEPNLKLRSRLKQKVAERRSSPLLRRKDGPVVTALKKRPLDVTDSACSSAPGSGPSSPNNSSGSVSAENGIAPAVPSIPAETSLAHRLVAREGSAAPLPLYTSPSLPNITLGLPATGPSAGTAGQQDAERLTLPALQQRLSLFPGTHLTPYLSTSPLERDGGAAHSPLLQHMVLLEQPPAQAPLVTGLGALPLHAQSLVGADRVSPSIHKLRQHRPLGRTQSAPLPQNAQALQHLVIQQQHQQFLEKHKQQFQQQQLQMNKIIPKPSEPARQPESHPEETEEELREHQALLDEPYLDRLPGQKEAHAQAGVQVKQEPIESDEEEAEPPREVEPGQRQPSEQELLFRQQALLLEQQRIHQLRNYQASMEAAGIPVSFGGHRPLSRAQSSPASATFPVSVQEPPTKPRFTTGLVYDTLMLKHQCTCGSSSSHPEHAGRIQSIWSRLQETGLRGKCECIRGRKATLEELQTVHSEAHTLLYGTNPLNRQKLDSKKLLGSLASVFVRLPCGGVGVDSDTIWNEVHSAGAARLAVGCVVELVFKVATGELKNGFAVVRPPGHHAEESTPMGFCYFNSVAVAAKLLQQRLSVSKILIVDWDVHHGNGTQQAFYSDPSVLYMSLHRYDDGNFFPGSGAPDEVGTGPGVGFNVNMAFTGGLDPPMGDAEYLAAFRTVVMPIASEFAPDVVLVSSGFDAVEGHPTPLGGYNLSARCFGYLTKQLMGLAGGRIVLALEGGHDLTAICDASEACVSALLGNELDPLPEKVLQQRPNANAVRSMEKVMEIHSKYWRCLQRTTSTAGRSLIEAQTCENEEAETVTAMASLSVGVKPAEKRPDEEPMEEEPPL
For series [14], the target named is T2, Histone deacetylase 11 (Homo sapiens, UniProt Q96DB2).
T2 sequence (Q96DB2 whole entry): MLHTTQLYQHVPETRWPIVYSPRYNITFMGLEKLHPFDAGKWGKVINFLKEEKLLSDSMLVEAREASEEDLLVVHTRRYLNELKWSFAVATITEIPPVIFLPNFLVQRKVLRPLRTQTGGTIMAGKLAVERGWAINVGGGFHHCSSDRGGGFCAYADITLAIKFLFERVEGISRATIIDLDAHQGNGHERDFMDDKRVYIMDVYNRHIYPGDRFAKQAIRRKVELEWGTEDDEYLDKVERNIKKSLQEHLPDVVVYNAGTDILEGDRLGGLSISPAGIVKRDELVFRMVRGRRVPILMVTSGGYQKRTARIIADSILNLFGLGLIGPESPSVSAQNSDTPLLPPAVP
In words: Inhibition of HDAC11 (unknown origin) using Ac-ETDKrnyr-AMC as substrate incubated for 30 mins by fluorescence based analysis.

In series [15] the target is T3, Tyrosine-protein kinase JAK3 (Homo sapiens, UniProt P52333).
T3 sequence (P52333 whole entry): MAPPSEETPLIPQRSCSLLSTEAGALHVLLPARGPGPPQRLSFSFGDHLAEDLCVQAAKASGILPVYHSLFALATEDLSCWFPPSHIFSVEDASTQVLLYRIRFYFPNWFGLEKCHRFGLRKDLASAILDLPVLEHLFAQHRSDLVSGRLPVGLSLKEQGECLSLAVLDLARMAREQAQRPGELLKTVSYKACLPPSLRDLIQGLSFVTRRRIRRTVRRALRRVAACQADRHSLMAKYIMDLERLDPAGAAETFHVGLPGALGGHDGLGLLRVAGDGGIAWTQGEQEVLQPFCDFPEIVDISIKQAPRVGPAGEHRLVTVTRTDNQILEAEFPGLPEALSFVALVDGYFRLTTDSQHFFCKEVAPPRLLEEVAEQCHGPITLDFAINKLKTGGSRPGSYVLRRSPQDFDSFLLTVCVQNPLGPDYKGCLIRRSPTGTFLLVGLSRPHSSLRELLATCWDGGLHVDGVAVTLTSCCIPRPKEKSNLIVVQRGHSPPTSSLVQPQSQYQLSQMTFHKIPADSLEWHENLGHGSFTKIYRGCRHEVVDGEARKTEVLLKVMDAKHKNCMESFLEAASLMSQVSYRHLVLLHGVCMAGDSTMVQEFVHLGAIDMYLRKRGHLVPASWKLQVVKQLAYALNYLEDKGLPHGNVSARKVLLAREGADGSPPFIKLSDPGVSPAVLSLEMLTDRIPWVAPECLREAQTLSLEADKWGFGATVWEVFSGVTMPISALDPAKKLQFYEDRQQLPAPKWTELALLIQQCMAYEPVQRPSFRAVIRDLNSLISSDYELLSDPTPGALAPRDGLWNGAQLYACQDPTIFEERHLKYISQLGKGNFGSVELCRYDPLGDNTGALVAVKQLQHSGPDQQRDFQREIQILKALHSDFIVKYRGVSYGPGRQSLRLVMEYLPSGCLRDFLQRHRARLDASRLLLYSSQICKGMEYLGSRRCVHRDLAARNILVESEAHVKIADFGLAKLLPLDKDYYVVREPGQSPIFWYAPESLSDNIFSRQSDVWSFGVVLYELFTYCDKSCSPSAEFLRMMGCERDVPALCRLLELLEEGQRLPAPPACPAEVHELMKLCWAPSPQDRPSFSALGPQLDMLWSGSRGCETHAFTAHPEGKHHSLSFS
In words: Inhibition of JAK3 (unknown origin) incubated for 40 mins in presence of ATP by Kinase-glo luminescent assay.

For series [16], the target named is Non-receptor tyrosine-protein kinase TYK2 (Homo sapiens, UniProt P29597). In words: Inhibition of TYK2 (unknown origin) incubated for 40 mins in presence of ATP by Kinase-glo luminescent assay. On the technique in general: Kinase-Glo reads ATP consumption through a luciferase reaction.
Non-receptor tyrosine-protein kinase TYK2, sequence (P29597 whole entry): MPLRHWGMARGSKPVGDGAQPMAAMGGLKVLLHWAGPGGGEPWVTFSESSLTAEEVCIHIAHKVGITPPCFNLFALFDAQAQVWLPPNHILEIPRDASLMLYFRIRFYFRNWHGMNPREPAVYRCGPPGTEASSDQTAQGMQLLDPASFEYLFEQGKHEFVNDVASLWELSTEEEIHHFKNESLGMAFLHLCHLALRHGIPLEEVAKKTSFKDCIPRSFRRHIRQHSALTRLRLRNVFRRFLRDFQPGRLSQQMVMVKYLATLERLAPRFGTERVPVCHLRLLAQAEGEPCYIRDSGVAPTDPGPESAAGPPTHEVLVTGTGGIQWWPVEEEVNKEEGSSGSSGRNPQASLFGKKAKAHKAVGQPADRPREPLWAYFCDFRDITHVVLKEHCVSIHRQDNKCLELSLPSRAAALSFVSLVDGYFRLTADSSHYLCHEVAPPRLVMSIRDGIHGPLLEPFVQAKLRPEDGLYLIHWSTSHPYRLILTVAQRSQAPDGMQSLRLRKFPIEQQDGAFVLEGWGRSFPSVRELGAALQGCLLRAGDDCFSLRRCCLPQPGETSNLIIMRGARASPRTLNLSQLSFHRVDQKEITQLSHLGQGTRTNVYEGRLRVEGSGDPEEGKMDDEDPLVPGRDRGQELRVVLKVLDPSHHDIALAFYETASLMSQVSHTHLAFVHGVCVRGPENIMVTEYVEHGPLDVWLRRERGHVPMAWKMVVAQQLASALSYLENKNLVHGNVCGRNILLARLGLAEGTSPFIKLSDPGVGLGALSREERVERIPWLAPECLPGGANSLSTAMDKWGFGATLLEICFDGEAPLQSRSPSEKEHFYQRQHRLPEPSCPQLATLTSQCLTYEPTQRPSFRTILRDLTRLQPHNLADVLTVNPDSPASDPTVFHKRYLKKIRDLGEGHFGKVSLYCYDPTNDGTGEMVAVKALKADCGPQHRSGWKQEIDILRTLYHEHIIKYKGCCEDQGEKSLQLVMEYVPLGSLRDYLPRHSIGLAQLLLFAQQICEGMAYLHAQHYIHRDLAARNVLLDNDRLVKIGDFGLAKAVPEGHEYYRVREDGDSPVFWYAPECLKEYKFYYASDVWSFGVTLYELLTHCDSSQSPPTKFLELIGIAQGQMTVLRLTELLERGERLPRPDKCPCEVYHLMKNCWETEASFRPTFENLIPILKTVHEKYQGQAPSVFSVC
Series [17] concerns GES1. In words: Cytotoxicity against human GES1 cells at 1 uM incubated for 48 hrs by MTT assay. Conditions: ges1, 48 h. The series is classed as toxicity, cell-based.

Where only a bound is given, the exact number is not on record here.

One compound from ChEMBL document CHEMBL5370605, “Discovery of Novel Fedratinib-Based HDAC/JAK/BRD4 Triple Inhibitors with Remarkable Antitumor Activity against Triple Negative Breast Cancer” (J Med Chem, 2023) can be followed below.

With `Cc1cnc(Nc2ccc(OCCN3CCCC3)cc2)nc1Nc1ccc(C(=O)NO)cc1`, the figures for the half-life in series [1] and in [4] were 0.625 h and 2.51 h, respectively. In series [2], the CLint scaled was found to be 146 mL/min/kg. Besides, the t1/2 in series [3] worked out at 1.49 h. Besides, in series [5], the Tmax (as a rule, the time at which the peak concentration occurs) was 0.19 h. The Cmax – broadly, the peak of the concentration-time curve – in [6] came out at 4730 ng/mL. Also, the AUCt in series [7] is 1951 ng·h/mL. In addition, the AUC(0-t) (commonly the area under the concentration-time curve up to a stated or last time point) at 24 h in [8] was determined as 14800 ng·h/mL. Moreover, the “MRT(t)” value in [9] was 1.66 h. Besides, the Vdss (commonly a proportionality between amount in the body and measured concentration, not a real space) in series [10] was found to be 8.84 L/kg. For the same compound, the Activity result in [11] and in series [17] was “Non-Toxic” in each case. For the same compound, the IC50 (as a rule, the concentration that gives 50% inhibition) was 160 nM in series [12]; above 5000 nM in series [13]; above 5000 nM in series [14]; 91 nM in series [15]; 99 nM in series [16].
